Results from patent publication US20230123334A1, “AMINO LIPID COMPOUND, PREPARATION METHOD THEREFOR, AND APPLICATION THEREOF” (SHENZHEN SHENXIN BIOTECHNOLOGY CO., LTD., priority 2020, published 2023).

How the values were obtained:
[1] = tested on: HEK293 cells; experiment: Preliminary screening as mRNA vectors, EGFP mRNA transfection of HEK293 cells; format: cell-based; settings: HEK293 cells, 96-well plates, EGFP mRNA 50 ng per well; percentage of GFP fluorescent cells relative to total number of cells (Hoechst)
Method in brief: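 Each well of HEK293 cells received 50 ng of EGFP mRNA. Efficiency was expressed as percent GFP-expressing cells over Hoechst-defined total cell number.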

[2] = tested on: HEK293 cells; experiment: Preliminary screening as DNA vectors, GFP transfection of HEK293 cells; format: cell-based; settings: HEK293 cells; lipid/DOPE liposome with 75 ng plasmid DNA (psin-EGFP-IRES-Puro); number of cells expressing GFP divided by total number of nuclei (Hoechst)
Method in brief: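 Lipid + DOPE liposomes (NaOAc, pH 5.6) complexed w/ 75 ng psin-EGFP-IRES-Puro, 30 min RT; added to 3-5×10^4 HEK293/well, 37° C. Hoechst 0.2 μg/mL at 20-24 h, imaged after further 20-24 h. Efficiency = GFP+ cells / total nuclei.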

CCCCCCCCCCCCCCCCCCSc1nc(NCCCN2CCOCC2)nc(SCCCCCCCCCCCCCC)n1 [Compound S14S18D8]
Absolute mRNA transfection efficiency in HEK293 cells [1]: 0.3% | Absolute DNA transfection efficiency in HEK293 cells [2]: 0.2%

CCCCCCCCCCCCCCSc1nc(NCCN2CCCC2)nc(SCCCCCCCC)n1 [Compound S8S14D3]
Absolute mRNA transfection efficiency in HEK293 cells [1]: 3.4% | Absolute DNA transfection efficiency in HEK293 cells [2]: 13.9%

CCCCCCCCCCCSc1nc(NCCN2CCOCC2)nc(SCCCCCCCCCCC)n1 [Compound S11S11D2]
Absolute mRNA transfection efficiency in HEK293 cells [1]: 0.0% | Absolute DNA transfection efficiency in HEK293 cells [2]: 0.2%

CCCCCCCCCCCCCCCCCCNc1nc(NCCCCCCCCC)nc(NCC2CCN(C)CC2)n1 [Compound N9N18D10]
Absolute mRNA transfection efficiency in HEK293 cells [1]: 1.9% | Absolute DNA transfection efficiency in HEK293 cells [2]: 2.6%

CCCCCCCCCCCCNc1nc(NCCCCCC)nc(NCC2CCN(C)CC2)n1 [Compound N6N12D10]
Absolute mRNA transfection efficiency in HEK293 cells [1]: 0.0% | Absolute DNA transfection efficiency in HEK293 cells [2]: 0.2%

CCCCCCCCCCCCN(CCCCCCCCCCCC)c1nc(NCCCCCCCCC)nc(NCCN2CCCC2)n1 [N9^2N12D3]
Absolute mRNA transfection efficiency in HEK293 cells [1]: 2.3% | Absolute DNA transfection efficiency in HEK293 cells [2]: 0.4%

CCCCCCCCCCCCCCSc1nc(NCCN2CCCCC2)nc(SCCCCCCCCCC)n1 [Compound S10S14D4]
Absolute mRNA transfection efficiency in HEK293 cells [1]: 0.2% | Absolute DNA transfection efficiency in HEK293 cells [2]: 5.9%

CCCCCCCCCCCCCCCNc1nc(NCCCCCCCCCCCCC)nc(NCCN2CCN(C)CC2)n1 [Compound N13N15D5]
Absolute mRNA transfection efficiency in HEK293 cells [1]: 0.8% | Absolute DNA transfection efficiency in HEK293 cells [2]: 0.2%

CCCCCCCCCCCCNc1nc(NCCN(C)C)nc(N(CCCCCCCCCCCC)CCCCCCCCCCCC)n1 [N12^2N12D1]
Absolute mRNA transfection efficiency in HEK293 cells [1]: 2.8% | Absolute DNA transfection efficiency in HEK293 cells [2]: 0.5%

CCCCCCCCCCCCCCCCSc1nc(NCCN(C)C)nc(SCCCCCCCCCCC)n1 [Compound S11S16D1]
Absolute mRNA transfection efficiency in HEK293 cells [1]: 2.4% | Absolute DNA transfection efficiency in HEK293 cells [2]: 0.5%

CCCCCCCCCCCCCCCNc1nc(NCCCCCC)nc(NCCN2CCOCC2)n1 [Compound N6N15D2]
Absolute mRNA transfection efficiency in HEK293 cells [1]: 0.1% | Absolute DNA transfection efficiency in HEK293 cells [2]: 0.0%

CCCCCCCCCCCCCCCNc1nc(NCC2CCN(C)CC2)nc(N(CCCCCCCCCCCC)CCCCCCCCCCCC)n1 [N15^2N12D10]
Absolute mRNA transfection efficiency in HEK293 cells [1]: 3.5% | Absolute DNA transfection efficiency in HEK293 cells [2]: 0.0%

CCCCCCCCCCSc1nc(NCCN2CCOCC2)nc(SCCCCCCCCC)n1 [Compound S9S10D2]
Absolute mRNA transfection efficiency in HEK293 cells [1]: 2.5% | Absolute DNA transfection efficiency in HEK293 cells [2]: 10.7%

CCCCCCCCCCCCN(CCCCCCCCCCCC)c1nc(NCCCN2CCOCC2)nc(N(CCCCCCCCCCCC)CCCCCCCCCCCC)n1 [2N12^2N12D8]
Absolute mRNA transfection efficiency in HEK293 cells [1]: 0.0% | Absolute DNA transfection efficiency in HEK293 cells [2]: 0.1%

CCCCCCCCCCCCCNc1nc(NCCCCCCCCCCCC)nc(NCCN2CCCC2)n1 [Compound N12N13D3]
Absolute mRNA transfection efficiency in HEK293 cells [1]: 3.1% | Absolute DNA transfection efficiency in HEK293 cells [2]: 1.7%

CCCCCCCCCCCCCCCCSc1nc(NCCN(CC)CC)nc(SCCCCCCCCCCC)n1 [Compound S11S16D7]
Absolute mRNA transfection efficiency in HEK293 cells [1]: 0.5% | Absolute DNA transfection efficiency in HEK293 cells [2]: 2.2%

CCCCCCCCCNc1nc(NCCCCCCC)nc(NCCN(CC)CC)n1 [Compound N7N9D7]
Absolute mRNA transfection efficiency in HEK293 cells [1]: 0.0% | Absolute DNA transfection efficiency in HEK293 cells [2]: 0.0%

CCCCCCCNc1nc(NCCCCCC)nc(NCCN(CC)CC)n1 [Compound N6N7D7]
Absolute mRNA transfection efficiency in HEK293 cells [1]: 0.0% | Absolute DNA transfection efficiency in HEK293 cells [2]: 0.0%

CCCCCCCCCCCCCCCSc1nc(NCCCN(C)C)nc(SCCCCCCCC)n1 [Compound S8S15D6]
Absolute mRNA transfection efficiency in HEK293 cells [1]: 45.0% | Absolute DNA transfection efficiency in HEK293 cells [2]: 24.5%

CCCCCCCCCCCCCCCCNc1nc(NCCCCCCC)nc(NCCN(C)C)n1 [Compound N7N16D1]
Absolute mRNA transfection efficiency in HEK293 cells [1]: 0.5% | Absolute DNA transfection efficiency in HEK293 cells [2]: 0.9%

CCCCCCCCCCCCCCCSc1nc(NCCN2CCCC2)nc(SCCCCCCCC)n1 [Compound S8S15D3]
Absolute mRNA transfection efficiency in HEK293 cells [1]: 0.9% | Absolute DNA transfection efficiency in HEK293 cells [2]: 21.8%

CCCCCCCCCCCCCCCCCCNc1nc(NCCCCCCCCCCCCC)nc(NCCN2CCCCC2)n1 [Compound N13N18D4]
Absolute mRNA transfection efficiency in HEK293 cells [1]: 3.1% | Absolute DNA transfection efficiency in HEK293 cells [2]: 1.8%

CCCCCCCCCCCCCCSc1nc(NCCCN2CCOCC2)nc(SCCCCCCCC)n1 [Compound S8S14D8]
Absolute mRNA transfection efficiency in HEK293 cells [1]: 3.4% | Absolute DNA transfection efficiency in HEK293 cells [2]: 17.1%

CCCCCCCCCCCCCNc1nc(NCCCCCCCCC)nc(NCCCN2CCN(C)CC2)n1 [Compound N9N13D9]
Absolute mRNA transfection efficiency in HEK293 cells [1]: 2.5% | Absolute DNA transfection efficiency in HEK293 cells [2]: 0.0%
